Laboratory results reported in patent US5747336A, “Cloned human genes for muscarinic acetylcholine receptors and cells lines expressing same” (The United States of America as represented by the …, priority 1994, dated 1998).

Tests used:
[1] = biological target: T1, human m2 receptor (Hm2) (Homo sapiens, UniProt P08172)
T1 sequence (P08172 1-466): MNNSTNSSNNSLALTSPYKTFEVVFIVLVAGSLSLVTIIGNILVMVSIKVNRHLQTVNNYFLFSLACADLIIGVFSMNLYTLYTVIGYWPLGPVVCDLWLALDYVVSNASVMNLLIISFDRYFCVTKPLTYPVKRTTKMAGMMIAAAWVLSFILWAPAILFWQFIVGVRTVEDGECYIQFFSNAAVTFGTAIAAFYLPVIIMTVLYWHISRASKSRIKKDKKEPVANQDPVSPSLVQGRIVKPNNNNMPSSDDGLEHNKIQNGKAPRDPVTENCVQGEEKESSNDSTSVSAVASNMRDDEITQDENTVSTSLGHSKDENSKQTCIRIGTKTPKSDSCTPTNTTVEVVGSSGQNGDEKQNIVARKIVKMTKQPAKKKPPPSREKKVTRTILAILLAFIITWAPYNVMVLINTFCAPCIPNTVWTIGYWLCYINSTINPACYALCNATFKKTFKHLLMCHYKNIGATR
Description: (§1) Data from two to four experiments were independently fit by nonlinear regression to a single mass-action binding site. The average values of the parameters derived from the fits and their standard errors are presented. […] Note Rm1 is the rat m1 receptor, not the human m1 receptor.

[2] = biological target: T2, human m5 receptor (Hm5) (Homo sapiens, UniProt P08912); assay: 3H-NMS binding assay (direct and inhibition), membranes of transfected CHO cells, Hm5
T2 construct: expressed in transfected cells
T2 sequence (P08912 1-532): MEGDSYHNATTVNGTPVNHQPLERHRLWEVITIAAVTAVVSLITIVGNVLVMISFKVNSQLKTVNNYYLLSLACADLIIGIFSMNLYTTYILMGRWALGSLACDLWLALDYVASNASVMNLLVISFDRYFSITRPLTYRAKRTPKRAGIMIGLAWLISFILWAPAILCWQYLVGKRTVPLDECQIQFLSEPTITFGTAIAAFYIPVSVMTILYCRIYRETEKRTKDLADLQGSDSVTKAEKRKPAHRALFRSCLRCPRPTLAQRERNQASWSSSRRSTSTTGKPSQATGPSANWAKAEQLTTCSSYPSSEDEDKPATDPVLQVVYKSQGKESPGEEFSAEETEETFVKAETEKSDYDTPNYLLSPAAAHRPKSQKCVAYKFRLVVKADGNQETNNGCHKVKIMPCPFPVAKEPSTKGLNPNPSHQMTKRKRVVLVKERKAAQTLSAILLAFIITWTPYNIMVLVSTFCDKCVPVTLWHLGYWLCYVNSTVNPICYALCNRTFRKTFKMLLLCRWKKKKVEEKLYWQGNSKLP
Description: Cells were seeded into six well plates at a density of 10^5 cells/well in growth medium consisting of Minimum Eagle's, Medium supplemented with 10% fetal calf serum (Gibco) and 1000 U each of penicillin G and streptomycin and 4 mM glutamine (Whitaker M.A Bioproducts). Except for the overnight (10-16 hours) transfection (see below) cells were incubated in a humidified incubator at 37° C. and 5% CO2. […] Cells were transferred to a humidified incubator at 35° C. and 3% CO2 and incubated overnight (10-16 hours). […] At the end of selection, transfected cells were harvested and plated at limiting dilution into 96-well plates.
Transfected cells were grown to confluence, washed and scraped into cold binding buffer and homogenized for 30 seconds in a Tekmar Tissumizer (setting 50). Membranes were pelleted at 14,000 g, rehomogenized and the membrane protein determined using a Biorad Protein assay dye reagent. Membrane concentration was adjusted to 1mg protein/ml and stored frozen at -80° C. prior to use.
All membranes, drugs and radioligands were made up in binding buffer which consisted of 25 mM sodium phosphate (pH 7.4) containing 5 mM magnesium chloride. Assays were conducted in 1 ml total volume. Final membrane protein concentrations were 30 ug/ml (m1), 70 ug/ml (m2), 4 μg/ml (m3), 7 μg/ml (m4), and 3 μg/ml (m5). […] Displaceable binding was assessed in the presence of 1 uM atropine sulphate. Binding was terminated by filtration through a Brandel cell harvester onto Whatman GF/C filters.
Data from two to four experiments were independently fit by nonlinear regression to a single mass-action binding site. […] Note Rm1 is the rat m1 receptor, not the human m1 receptor.

[3] = biological target: T3, human m4 receptor (Hm4) (Homo sapiens, UniProt P08173); assay: biochemical
T3 sequence (P08173 1-479): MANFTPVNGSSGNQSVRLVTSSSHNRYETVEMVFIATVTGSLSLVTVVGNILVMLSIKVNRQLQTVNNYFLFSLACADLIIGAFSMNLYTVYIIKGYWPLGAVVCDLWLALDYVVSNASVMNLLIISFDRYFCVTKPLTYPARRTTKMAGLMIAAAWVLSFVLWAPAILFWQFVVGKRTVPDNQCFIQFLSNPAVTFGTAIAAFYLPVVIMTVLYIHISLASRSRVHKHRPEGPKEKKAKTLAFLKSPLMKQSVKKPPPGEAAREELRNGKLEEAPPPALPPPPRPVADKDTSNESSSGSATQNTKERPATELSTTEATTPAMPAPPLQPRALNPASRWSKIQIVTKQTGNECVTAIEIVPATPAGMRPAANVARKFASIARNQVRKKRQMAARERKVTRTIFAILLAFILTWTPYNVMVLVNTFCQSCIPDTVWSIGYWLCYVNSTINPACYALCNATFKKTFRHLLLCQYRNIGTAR

[4] = biological target: T4, rat m1 receptor (Rm1) (Rattus norvegicus, UniProt P08482); assay: biochemical
T4 sequence (P08482 1-460): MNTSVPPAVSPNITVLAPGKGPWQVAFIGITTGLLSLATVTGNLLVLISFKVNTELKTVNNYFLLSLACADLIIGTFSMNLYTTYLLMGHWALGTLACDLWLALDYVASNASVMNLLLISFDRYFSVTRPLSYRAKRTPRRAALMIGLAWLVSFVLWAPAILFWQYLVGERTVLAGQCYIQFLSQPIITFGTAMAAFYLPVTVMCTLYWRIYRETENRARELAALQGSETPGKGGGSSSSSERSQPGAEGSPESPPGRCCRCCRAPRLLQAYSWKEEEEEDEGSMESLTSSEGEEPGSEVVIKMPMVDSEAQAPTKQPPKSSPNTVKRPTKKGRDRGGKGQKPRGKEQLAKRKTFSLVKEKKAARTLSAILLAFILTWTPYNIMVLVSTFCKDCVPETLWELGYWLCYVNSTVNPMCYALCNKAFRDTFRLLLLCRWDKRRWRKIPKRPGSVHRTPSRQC
Description: (§2) All membranes, drugs and radioligands were made up in binding buffer which consisted of 25 mM sodium phosphate (pH 7.4) containing 5 mM magnesium chloride. Assays were conducted in 1 ml total volume. Final membrane protein concentrations were 30 ug/ml (m1), 70 ug/ml (m2), 4 μg/ml (m3), 7 μg/ml (m4), and 3 μg/ml (m5). […] Displaceable binding was assessed in the presence of 1 uM atropine sulphate. […]

[5] = biological target: T3, human m4 receptor (Hm4); conditions: inhibition of 3H-NMS binding
[6] = biological target: T5, human m3 receptor (Hm3) (Homo sapiens, UniProt P20309)
T5 sequence (P20309 whole entry): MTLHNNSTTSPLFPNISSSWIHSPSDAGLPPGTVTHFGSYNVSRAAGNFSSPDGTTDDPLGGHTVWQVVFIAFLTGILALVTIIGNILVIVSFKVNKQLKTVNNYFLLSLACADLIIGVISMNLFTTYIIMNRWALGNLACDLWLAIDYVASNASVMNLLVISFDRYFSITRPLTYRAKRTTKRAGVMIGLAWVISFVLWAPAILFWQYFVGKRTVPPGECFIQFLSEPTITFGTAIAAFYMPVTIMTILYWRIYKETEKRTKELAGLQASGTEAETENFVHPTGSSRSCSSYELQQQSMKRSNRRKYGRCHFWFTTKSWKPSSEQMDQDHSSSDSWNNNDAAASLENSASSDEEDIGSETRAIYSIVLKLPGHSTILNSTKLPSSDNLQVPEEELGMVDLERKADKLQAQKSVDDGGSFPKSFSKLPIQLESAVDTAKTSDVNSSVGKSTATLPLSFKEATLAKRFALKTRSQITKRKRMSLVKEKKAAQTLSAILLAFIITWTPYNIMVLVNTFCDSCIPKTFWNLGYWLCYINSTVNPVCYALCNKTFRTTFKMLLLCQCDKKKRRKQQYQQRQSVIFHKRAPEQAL
Description: as §2

[7] = biological target: T1, human m2 receptor (Hm2); assay: biochemical
Description: as §1

[8] = biological target: T4, rat m1 receptor (Rm1); conditions: inhibition of 3H-NMS binding
Description: as §2

[9] = biological target: T5, human m3 receptor (Hm3); assay: biochemical
Description: as §2

| Structure (SMILES) | Bmax ([1]; Hm2 in CHO cell membranes, direct binding of 3H-NMS) [fmol/mg protein] | Bmax ([2]; Hm5 in CHO cell membranes, direct binding of 3H-NMS) [fmol/mg protein] | IC50 [3] [nM] | IC50 [4] [nM] | Ki ([1]; Hm2, inhibition of 3H-NMS binding) [nM] | IC50 [2] [nM] | Ki ([2]; Hm5, inhibition of 3H-NMS binding) [nM] | Ki ([5]; Hm4) [nM] | average Hill number (H) ([5]; m4, fit to single mass action binding site with variable Hill number) | Ki [6] [nM] | IC50 [7] [nM] | Ki [8] [nM] | IC50 [9] [nM] |
| --- | --- | --- | --- | --- | --- | --- | --- | --- | --- | --- | --- | --- | --- |
| C[N+]1(C)C2CC(OC(=O)C(CO)c3ccccc3)CC1C1OC12 (single isomer, unassigned) [^3 H-NMS, N-methylscopolamine] | 121 ± 63 | 2236 ± 590 | – | – | – | – | – | – | – | – | – | – | – |
| CCN(CC)CC1CCCCN1CC(=O)N1c2ccccc2C(=O)Nc2cccnc21 (stereo not shown) [AF-DX 116] | – | – | 1800 ± 300 | 4300 ± 1200 | 260 | 6800 ± 900 | 2800 | 450 | 0.79±0.03 | 820 | 360 ± 230 | 1300 | 3100 ± 400 |
